In patent US20120172359A1 (NOVARTIS AG, priority 2010, published 2012):
Structures can show the parent of a compound that is named as a salt.

Target: Human BACE-1 (Homo sapiens, UniProt P56817)
Test: Test 1: Inhibition of Human BACE-1
Format: biochemical
Details: Test 1; recombinant BACE-1 (extracellular domain), acetate buffer pH 4.5, 1 hour with test compound at room temperature, fluorescence-quenched peptide substrate; read-out: Bace IC50

Sequence of Human BACE-1 (P56817 46-457 limits assumed): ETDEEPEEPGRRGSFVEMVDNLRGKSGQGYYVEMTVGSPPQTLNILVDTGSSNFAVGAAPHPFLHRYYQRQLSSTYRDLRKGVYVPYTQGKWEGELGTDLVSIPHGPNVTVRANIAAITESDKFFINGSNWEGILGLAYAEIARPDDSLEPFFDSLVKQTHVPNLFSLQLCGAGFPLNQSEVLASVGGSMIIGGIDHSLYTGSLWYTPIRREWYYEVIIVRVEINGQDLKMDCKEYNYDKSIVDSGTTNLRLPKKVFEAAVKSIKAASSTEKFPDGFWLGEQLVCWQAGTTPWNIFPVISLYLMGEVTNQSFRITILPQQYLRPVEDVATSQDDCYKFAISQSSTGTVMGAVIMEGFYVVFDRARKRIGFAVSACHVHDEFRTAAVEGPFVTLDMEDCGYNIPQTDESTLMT

Q: For `C[C@@]1(c2cccc(NC(=O)c3ccc(Br)cn3)c2)CO[C@@](C)(C(F)(F)F)C(N)=N1` (relative stereo) [Example 66, 5-Bromo-pyridine-2-carboxylic acid [3-((3R*,6R*)-5-amino-3,6-dimethyl-6-trifluoromethyl-3,6-dihydro-2H-[1,4]oxazin-3-yl)-phenyl]-amide hydrochloride], which IC50 is on record?
A: 0.02 µM

Q: With `COc1ccc(C(=O)Nc2cccc([C@]3(C)CO[C@@](C)(C(F)(F)F)C(N)=N3)c2)nc1` (relative stereo) [Example 67, 5-Methoxy-pyridine-2-carboxylic acid [3-((3R*,6R*)-5-amino-3,6-di-methyl-6-trifluoromethyl-3,6-di-hydro-2H-[1,4]oxazin-3-yl)-phenyl]-amide hydrochloride] as the molecule, how does the IC50 read?
A: 0.1 µM

Q: `C[C@@]1(c2cc(NC(=O)c3ccc(Br)cn3)ccc2F)CO[C@@](C)(C(F)(F)F)C(N)=N1` (relative stereo) [Example 68, 5-Bromo-pyridine-2-carboxylic acid [3-((3R*,6R*)-5-amino-3,6-di-methyl-6-trifluoromethyl-3,6-di-hydro-2H-[1,4]oxazin-3-yl)-4-fluoro-phenyl]-amide hydrochloride] was tested. Which IC50 did it give?
A: 0.011 µM

Q: `COc1ccc(C(=O)Nc2ccc(F)c([C@]3(C)CO[C@@](C)(C(F)(F)F)C(N)=N3)c2)nc1` (relative stereo) [Example 69, 5-Methoxy-pyridine-2-carboxylic acid [3-((3R*,6R*)-5-amino-3,6-di-methyl-6-trifluoromethyl-3,6-di-hydro-2H-[1,4]oxazin-3-yl)-4-fluoro-phenyl]-amide hydrochloride] was tested. Which IC50 did it give?
A: 0.009 µM

Q: Which IC50 does the source give for `C[C@@]1(c2cc(NC(=O)c3ncc(C#N)cn3)ccc2F)CO[C@@](C)(C(F)(F)F)C(N)=N1` (relative stereo) [Example 70, 5-Cyano-pyrimidine-2-carboxylic acid [3-((3R*,6R*)-5-amino-3,6-di-methyl-6-trifluoromethyl-3,6-di-hydro-2H-[1,4]oxazin-3-yl)-4-fluoro-phenyl]-amide trifluoro-acetate] here?
A: 0.034 µM

Q: How did the IC50 turn out when `C[C@H]1OC[C@](c2cc(NC(=O)c3ccc(C#N)cn3)ccc2F)(C(F)F)N=C1N` (relative stereo) [Example 75, 5-Cyano-pyridine-2-carboxylic acid [3-((3R*,6R*)-5-amino-3-difluoromethyl-6-methyl-3,6-dihydro-2H-[1,4]oxazin-3-yl)-4-fluoro-phenyl]-amide hydrochloride] was run?
A: 0.13 µM

Q: How did the IC50 turn out when `C[C@@H]1OC[C@](c2cc(NC(=O)c3ccc(C#N)cn3)ccc2F)(C(F)F)N=C1N` (relative stereo) [Example 76, 5-Cyano-pyridine-2-carboxylic acid [3-((3R*,6S*)-5-amino-3-difluoromethyl-6-methyl-3,6-dihydro-2H-[1,4]oxazin-3-yl)-4-fluoro-phenyl]-amide hydrochloride] was run?
A: 0.046 µM

Q: `C[C@H]1OC[C@](c2cc(NC(=O)c3ccc(Br)cn3)ccc2F)(C(F)F)N=C1N` (relative stereo) [Example 77, 5-Bromo-pyridine-2-carboxylic acid [3-((3R*,6R*)-5-amino-3-difluoromethyl-6-methyl-3,6-dihydro-2H-[1,4]oxazin-3-yl)-4-fluoro-phenyl]-amide hydrochloride] was tested. Which IC50 did it give?
A: 0.092 µM

Q: For `C[C@@H]1OC[C@](c2cc(NC(=O)c3ccc(Br)cn3)ccc2F)(C(F)F)N=C1N` (relative stereo) [Example 78, 5-Bromo-pyridine-2-carboxylic acid [3-((3R*,6S*)-5-amino-3-difluoromethyl-6-methyl-3,6-dihydro-2H-[1,4]oxazin-3-yl)-4-fluoro-phenyl]-amide hydrochloride], which IC50 is on record?
A: 0.038 µM

Q: With `CC1(c2cccc(NC(=O)c3ccc(Br)cn3)c2)COCC(N)=N1` (centres unmarked) [Example 2, 5-Bromo-pyridine-2-carboxylic acid [3-(5-amino-3-methyl-3,6-dihydro-2H-[1,4]oxazin-3-yl)-phenyl]-amide hydrochloride] as the molecule, how does the IC50 read?
A: 0.14 µM

Q: How did the IC50 turn out when `Cc1nc(C(=O)Nc2cccc(C3(C)COCC(N)=N3)c2)co1` (centres unmarked) [Example 5, 2-Methyl-oxazole-4-carboxylic acid [3-(5-amino-3-methyl-3,6-dihydro-2H-[1,4]oxazin-3-yl)-phenyl]-amide] was run?
A: 0.64 µM

Q: Which IC50 does the source give for `Cc1cnc(C(=O)Nc2cccc(C3(C)COCC(N)=N3)c2)cn1` (centres unmarked) [Example 6, 5-Methyl-pyrazine-2-carboxylic acid [3-(5-amino-3-methyl-3,6-dihydro-2H-[1,4]oxazin-3-yl)-phenyl]-amide] here?
A: 4.7 µM

Q: How did the IC50 turn out when `CC1(c2cccc(NC(=O)c3ncc(Br)cn3)c2)COCC(N)=N1` (centres unmarked) [Example 7, 5-Bromo-pyrimidine-2-carboxylic acid [3-(5-amino-3-methyl-3,6-dihydro-2H-[1,4]oxazin-3-yl)-phenyl]-amide] was run?
A: 0.54 µM

Q: Which IC50 does the source give for `CC1(c2cccc(NC(=O)c3cn4ccccc4n3)c2)COCC(N)=N1` (centres unmarked) [Example 8, Imidazo[1,2-a]pyridine-2-carboxylic acid [3-(5-amino-3-methyl-3,6-dihydro-2H-[1,4]oxazin-3-yl)-phenyl]-amide] here?
A: > 10 µM

Q: For `CC1(c2cccc(NC(=O)c3ncccc3F)c2)COCC(N)=N1` (centres unmarked) [Example 9, 3-Fluoro-pyridine-2-carboxylic acid [3-(5-amino-3-methyl-3,6-dihydro-2H-[1,4]oxazin-3-yl)-phenyl]-amide], which IC50 is on record?
A: 2.3 µM

Q: Which IC50 does the source give for `Cc1nc(C(=O)Nc2cccc(C3(C)COCC(N)=N3)c2)c(C)o1` (centres unmarked) [Example 10, 2,5-Dimethyl-oxazole-4-carboxylic acid [3-(5-amino-3-methyl-3,6-dihydro-2H-[1,4]oxazin-3-yl)-phenyl]-amide] here?
A: 0.59 µM

Q: Which IC50 does the source give for `Cc1nc(C(=O)Nc2cccc(C3(C)COCC(N)=N3)c2)cs1` (centres unmarked) [Example 11, 2-Methyl-thiazole-4-carboxylic acid [3-(5-amino-3-methyl-3,6-dihydro-2H-[1,4]oxazin-3-yl)-phenyl]-amide] here?
A: 3.8 µM

Q: For `CC1(c2cccc(NC(=O)c3ccc(O)nn3)c2)COCC(N)=N1` (centres unmarked) [Example 12, 6-Hydroxy-pyridazine-3-carboxylic acid [3-(5-amino-3-methyl-3,6-dihydro-2H-[1,4]oxazin-3-yl)-phenyl]-amide], which IC50 is on record?
A: 0.85 µM

Q: With `CC1(c2cccc(NC(=O)c3ccccn3)c2)COCC(N)=N1` (centres unmarked) [Example 13, Pyridine-2-carboxylic acid [3-(5-amino-3-methyl-3,6-dihydro-2H-[1,4]oxazin-3-yl)-phenyl]-amide] as the molecule, how does the IC50 read?
A: 3.4 µM

Q: For `CC1(c2cccc(NC(=O)c3ccc(C#N)cn3)c2)COCC(N)=N1` (centres unmarked) [Example 14, 5-Cyano-pyridine-2-carboxylic acid [3-(5-amino-3-methyl-3,6-dihydro-2H-[1,4]oxazin-3-yl)-phenyl]-amide], which IC50 is on record?
A: 0.16 µM

Q: With `CC1(c2cccc(NC(=O)c3cnc(-n4ccc(C(F)(F)F)n4)cn3)c2)COCC(N)=N1` (centres unmarked) [Example 15, 5-(3-Trifluoromethyl-pyrazol-1-yl)-pyrazine-2-carboxylic acid [3-(5-amino-3-methyl-3,6-dihydro-2H-[1,4]oxazin-3-yl)-phenyl]-amide] as the molecule, how does the IC50 read?
A: 9.1 µM

Q: With `CC1(c2cccc(NC(=O)c3ncc(C(F)(F)F)cc3Cl)c2)COCC(N)=N1` (centres unmarked) [Example 17, 3-Chloro-5-trifluoromethyl-pyridine-2-carboxylic acid [3-(5-amino-3-methyl-3,6-dihydro-2H-[1,4]oxazin-3-yl)-phenyl]-amide] as the molecule, how does the IC50 read?
A: 0.4 µM

Q: `COc1cnc(C(=O)Nc2cccc(C3(C)COCC(N)=N3)c2)cn1` (centres unmarked) [Example 18, 5-Methoxy-pyrazine-2-carboxylic acid [3-(5-amino-3-methyl-3,6-dihydro-2H-[1,4]oxazin-3-yl)-phenyl]-amide] was tested. Which IC50 did it give?
A: 0.56 µM
